This is an account of results in US5418239A, “Tricyclic heterocyclic compounds, their production and use” (Takeda Chemical Industries, Ltd., priority 1990, dated 1995).

In assay [1] the test system is plasma cholesterol. Nature of the assay: Plasma cholesterol lowering activity in cholesterol-fed rats. It counts as in vivo, Male Sprague-Dawley rats. Conditions: 1% cholesterol diet containing 0.0003% test compound, 7 days; ingested about 0.23-0.24 mg/kg/day; mean ± S.D.; * p < 0.05 (t-test) against control group (181.8 ± 60.4). The method, then:
Male Sprague-Dawley rats aged 7 weeks were divided into groups based on body weight and put on a 1% cholesterol diet (the rat diet supplemented with 0.5% cholic acid and 5% olive oil) containing 0.0003% of the test compound for 7 days. The blood was sampled from surfeited rats between 8:30 and 10:00 a.m. and the plasma cholesterol concentration was enzymatically determined. The amount of the compound ingested was calculated from the food consumption.

Assay [2] addresses T1, Acyl-CoA:cholesterol transferase (ACAT) (Rattus norvegicus, UniProt Q7TQM4).
T1 construct: small intestinal mucosal microsome fraction of a 6-week-old male sprague-Dawley rat; from tissue; host or cells: small intestinal mucosal microsome fraction, 6-week-old male Sprague-Dawley rat
T1 sequence (Q7TQM4 1-524): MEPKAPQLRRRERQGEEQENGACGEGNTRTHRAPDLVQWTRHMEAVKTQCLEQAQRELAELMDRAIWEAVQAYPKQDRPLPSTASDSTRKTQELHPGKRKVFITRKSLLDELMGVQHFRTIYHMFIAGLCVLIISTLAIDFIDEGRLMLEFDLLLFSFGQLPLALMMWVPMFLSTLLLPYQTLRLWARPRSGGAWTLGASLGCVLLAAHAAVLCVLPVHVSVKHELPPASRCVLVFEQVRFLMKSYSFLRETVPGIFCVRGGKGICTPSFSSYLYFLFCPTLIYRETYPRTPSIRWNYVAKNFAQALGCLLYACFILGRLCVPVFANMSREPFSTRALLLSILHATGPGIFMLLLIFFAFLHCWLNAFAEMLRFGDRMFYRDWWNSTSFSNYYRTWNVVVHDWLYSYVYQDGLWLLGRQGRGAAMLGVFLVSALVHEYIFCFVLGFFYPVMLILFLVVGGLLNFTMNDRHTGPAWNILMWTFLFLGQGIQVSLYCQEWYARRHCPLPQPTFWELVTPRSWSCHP
Nature of the assay: Acyl-CoA:cholesterol transferase (ACAT) inhibitory activity (labeled cholesterol ester production, small intestinal mucosal microsome fraction). Type of assay: biochemical, male sprague-Dawley rat. Conditions: rat small intestinal mucosal microsomes; for inhibition at 1 µM: 10^-6 M test compound, read-out: ACAT inhibition rate (%) (labeled cholesterol ester production inhibiting rate); for IC50: plotted at a plurality of concentration levels, read-out: IC50 (50% inhibitory concentration, ACAT). The method, then:
Samples of ACAT enzyme were prepared from the small intestinal mucosal microsome fraction of a 6-week-old male sprague-Dawley rat fasted for 20 hours in accordance with the procedure described by Heider et al, Journal of Lipid Research 24, 1127 (1982).
ACAT activity was determined in accordance with the method of Helgerud et al., Journal of Lipid Research 22, 271 (1981), by measuring the amount of labeled cholesterol ester produced from [1-^14 C]oloyl-CoA and endogenous cholesterol.
The 50% inhibitory concentration (IC50) determined by plotting at a plurality of concentration levels is also shown.

Structures are written as SMILES.

Turning to `O=C(Nc1ccc(F)cc1F)Nc1cnc2cc3c(cc2c1-c1ccccc1Cl)CCC3` [Example 1, N-[4-(2-chlorophenyl)-7,8-dihydro-6H-cyclopenta[g]quinolin-3-yl]-N'-(2,4-difluorophenyl)urea], the Plasma cholesterol in assay [1] was 80.8 ± 18.6 mg/dL. In assay [2], the inhibition at 1 µM was found to be 99.3% and the IC50 is 3.8 nM. For `Cc1ccccc1-c1c(NC(=O)Nc2ccc(F)cc2F)cnc2cc3c(cc12)CCC3` [Example 2, N-[7,8-Dihydro-4-(2-methylphenyl)-6H-cyclopenta[g]-quinolin-3-yl]-N'-(2,4-difluorophenyl)urea], the Plasma cholesterol in assay [1] is 78.5 ± 10.2 mg/dL. In assay [2], the inhibition at 1 µM worked out at 99.2% and the IC50 is 3.9 nM. Compound `Cc1ccccc1-c1c(NC(=O)Nc2ccc(F)cc2F)c(=O)oc2cc3c(cc12)CCC3` [Example 3, N-(2,4-difluorophenyl)-N'-[4-(2-methylphenyl)-2-oxo-2,6,7,8-tetrahydrocyclopenta[g][1]-benzopyran-3-yl]urea] showed a Plasma cholesterol in assay [1] of 78.1 ± 12.6 mg/dL. In addition, in assay [2], the inhibition at 1 µM was 99.5%. Consider `O=C(Cc1ccc(F)cc1F)Nc1cnc2cc3c(cc2c1-c1ccccc1Cl)CCC3` [Example 4, 4-(2-chlorophenyl)-3-(2,4-difluorophenylacetylamino)-7,8-dihydro-6H-cyclopenta(g)quinoline], for which the inhibition at 1 µM in assay [2] is 91.5%. For the compound `CC(C)(C)c1cc(-c2c(NC(=O)Nc3ccc(F)cc3F)c(=O)oc3cc4c(cc23)CCC4)cc(C(C)(C)C)c1O` [Example 8, N-[4-(3,5-di-tert-butyl-4-hydroxyphenyl)-2-oxo-2,6,7,8-tetrahydrocyclopenta[g] [1]benzopyran-3-yl]-N'-(2,4-difluorophenyl]urea], the inhibition at 1 µM in assay [2] turned out to be 99%. Turning to `Cc1ccccc1-c1c(NC(=O)Nc2ccc(N(C)C)cc2)c(=O)oc2cc3c(cc12)CCC3` [Example 9, N-(4-dimethylaminophenyl)-N'-[4-(2-methylphenyl)-2-oxo-2,6,7,8-tetrahydrocyclopenta[g] [1]benzo-pyran-3-yl]urea], the inhibition at 1 µM in assay [2] came out at 94.6%. Still for that read-out and setting: next, `Cc1ccccc1-c1c(NC(=O)Nc2ccc(F)cc2F)c(=O)oc2cc3c(cc12)CCCC3` [Example 10, N-(2,4-difluorophenyl)-N'-[4-(2-methylphenyl)-6,7,8,9-tetrahydro-2-oxo-2H-naphtho[2,3-b]pyran-3-yl]urea]: 98.7%; `COc1nc2cc3c(cc2c(-c2ccccc2Cl)c1NC(=O)Nc1cc(C)c(OC(C)=O)c(C)c1)CCC3` [Example 11, N-(4-acetoxy-3,5-dimethylphenyl)-N'-[4-(2-chlorophenyl)-7,8-dihydro-2-methoxy-6H-cyclopenta[g]-quinolin-3-yl]urea]: 75.6%. The same measure, in the same setting: next, `CC(=O)Oc1c(C)cc(NC(=O)Nc2c(-c3ccccc3C)c3cc4c(cc3n(C)c2=O)CCC4)cc1C` [Example 12, N-(4-acetoxy-3,5-dimethylphenyl)-N'-[1-methyl-4-(2-methylphenyl)-2-oxo-l,2,7,8-tetrahydro-6H-cyclopenta[g]quinolin-3-yl]urea]: 91.1%. `COc1ccc(C=CC(=O)Nc2c(-c3ccccc3C)c3cc4c(cc3oc2=O)CCC4)cc1OC` [Example 13, 3-(3,4-dimethoxycinnamoylamino) -4-(2-methylphenyl)-7,8-dihydrocyclopenta[g] 1benzopyran-2(6H)-one]: the inhibition at 1 µM in assay [2] came out at 89.9%. Still for that read-out and setting: next, `Cc1ccccc1-c1c(NC(=O)Cc2cc(C(C)(C)C)c(O)c(C(C)(C)C)c2)c(=O)oc2cc3c(cc12)CCC3` [Example 15, 3-(3,5-di-tert-butyl-4-hydroxyphenylacetylamino) -4-(2-methylphenyl)-7,8-dihydrocyclopenta-[g] [1]benzopyran-2(6H)-one]: 89.6%; `COc1cc(NC(=O)Nc2c(-c3ccccc3C)c3cc4c(cc3oc2=O)CCC4)cc(OC)c1O` [Example 16, N-(4-hydroxy-3,5-dimethoxyphenyl)-N'-[4-(2-methylphenyl)-2-oxo-2,6,7,8-tetrahydrocyclopenta [g] [1]benzopyran-3-yl]urea]: 94.4%; `Cc1ccccc1-c1c(NC(=O)Nc2cc(C)c(O)c(C)c2)c(=O)oc2cc3c(cc12)CCC3` [Example 17, N-(4-hydroxy-3,5-dimethylphenyl)-N'-[4-(2-methylphenyl)-2-oxo-2,6,7,8-tetrahydrocyclopenta-[g] [1]benzopyran-3-yl]urea]: 97.6%.

Consider `Cc1ccccc1-c1c(NC(=O)C=Cc2ccc(O)c(O)c2)c(=O)oc2cc3c(cc12)CCC3` [Example 18, 3-(3,4-dihydroxycinnamoylamino)-4-(2-methylphenyl)-7,8-dihydrocyclopenta [g] [1]benzopyran-2(6H)-one], for which, in assay [2], the inhibition at 1 µM is 86.9%. `Cc1ccccc1-c1c(NC(=O)Nc2ccc(F)cc2F)c(=O)n(C)c2cc3c(cc12)CCC3` [Example 19, N-(2,4-difluorophenyl)-N'-[1-methyl-4-(2-methylphenyl)-2-oxo-l,2,7,8-tetrahydro-6H-cyclopenta-[g]quinolin-3-yl]urea]: the inhibition at 1 µM in assay [2] came to 98.2%.
